Assay [1] addresses Phosphatidylinositol 3-kinase catalytic subunit type 3 (Homo sapiens, UniProt Q8NEB9). The assay is described as follows: Inhibition of human VPS34 (282 to 879 residues) expressed in mammalian expression system by KINOMEscan assay.
Assay [2] deals with T1, Phosphatidylinositol 4,5-bisphosphate 3-kinase catalytic subunit alpha isoform (Homo sapiens, UniProt P42336).
Assay [3] in a line: Inhibition of TORC2 in human A2058 cells assessed as decrease in PKB/Akt phosphorylation at Ser473 after 1 hr by Western blot analysis. The conditions noted are these: A2058, 1 h. Type of assay: cell-based. A general note: A western blot detects proteins with antibodies after separation by electrophoresis.
In assay [4] the target is Serine/threonine-protein kinase mTOR (Homo sapiens, UniProt P42345).
Assay [5] in a line: Inhibition of TORC1 in human A2058 cells assessed as decrease in S6 phosphorylation at Ser235/236 after 1 hr by Western blot analysis. The settings on record: A2058, 1 h. Type of assay: cell-based.
In assay [6] the target is Phosphatidylinositol 4-kinase beta (Homo sapiens, UniProt Q9UBF8).
Sequence of Phosphatidylinositol 4-kinase beta (Q9UBF8 whole entry, canonical isoform): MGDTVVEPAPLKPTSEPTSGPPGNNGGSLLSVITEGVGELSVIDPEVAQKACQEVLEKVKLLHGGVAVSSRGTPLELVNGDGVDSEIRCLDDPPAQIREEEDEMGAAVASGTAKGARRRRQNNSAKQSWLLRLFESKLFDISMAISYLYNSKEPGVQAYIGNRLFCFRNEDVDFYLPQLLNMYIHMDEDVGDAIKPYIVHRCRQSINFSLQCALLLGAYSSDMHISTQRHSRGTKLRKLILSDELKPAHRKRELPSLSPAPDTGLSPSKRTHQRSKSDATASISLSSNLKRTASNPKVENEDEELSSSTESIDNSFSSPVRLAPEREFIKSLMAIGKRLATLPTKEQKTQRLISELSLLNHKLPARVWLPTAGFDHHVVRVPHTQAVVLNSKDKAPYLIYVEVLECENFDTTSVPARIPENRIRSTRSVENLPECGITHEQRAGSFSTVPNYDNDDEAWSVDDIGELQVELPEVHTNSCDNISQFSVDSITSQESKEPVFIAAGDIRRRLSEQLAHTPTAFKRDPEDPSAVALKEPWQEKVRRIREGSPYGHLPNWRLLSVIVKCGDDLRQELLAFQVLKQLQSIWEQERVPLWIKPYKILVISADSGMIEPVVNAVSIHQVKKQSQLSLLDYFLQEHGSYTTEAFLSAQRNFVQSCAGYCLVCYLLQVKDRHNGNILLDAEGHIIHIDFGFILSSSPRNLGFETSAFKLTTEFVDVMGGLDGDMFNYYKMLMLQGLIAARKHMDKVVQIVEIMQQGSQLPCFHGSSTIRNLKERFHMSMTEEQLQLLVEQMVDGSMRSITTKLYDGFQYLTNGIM
Description: Inhibition of human PI4Kbeta (1 to 828 residues) expressed in mammalian expression system by KINOMEscan assay
The target of assay [7] is T1, Phosphatidylinositol 4,5-bisphosphate 3-kinase catalytic subunit alpha isoform. The source holds these as a separate data set.
Description: Inhibition of human PI3Kalpha (108 to 1068 residues) expressed in mammalian expression system by KINOMEscan assay
The target in assay [8] is T2, Phosphatidylinositol 4,5-bisphosphate 3-kinase catalytic subunit delta isoform (Homo sapiens, UniProt O00329).
T2 sequence (O00329 whole entry): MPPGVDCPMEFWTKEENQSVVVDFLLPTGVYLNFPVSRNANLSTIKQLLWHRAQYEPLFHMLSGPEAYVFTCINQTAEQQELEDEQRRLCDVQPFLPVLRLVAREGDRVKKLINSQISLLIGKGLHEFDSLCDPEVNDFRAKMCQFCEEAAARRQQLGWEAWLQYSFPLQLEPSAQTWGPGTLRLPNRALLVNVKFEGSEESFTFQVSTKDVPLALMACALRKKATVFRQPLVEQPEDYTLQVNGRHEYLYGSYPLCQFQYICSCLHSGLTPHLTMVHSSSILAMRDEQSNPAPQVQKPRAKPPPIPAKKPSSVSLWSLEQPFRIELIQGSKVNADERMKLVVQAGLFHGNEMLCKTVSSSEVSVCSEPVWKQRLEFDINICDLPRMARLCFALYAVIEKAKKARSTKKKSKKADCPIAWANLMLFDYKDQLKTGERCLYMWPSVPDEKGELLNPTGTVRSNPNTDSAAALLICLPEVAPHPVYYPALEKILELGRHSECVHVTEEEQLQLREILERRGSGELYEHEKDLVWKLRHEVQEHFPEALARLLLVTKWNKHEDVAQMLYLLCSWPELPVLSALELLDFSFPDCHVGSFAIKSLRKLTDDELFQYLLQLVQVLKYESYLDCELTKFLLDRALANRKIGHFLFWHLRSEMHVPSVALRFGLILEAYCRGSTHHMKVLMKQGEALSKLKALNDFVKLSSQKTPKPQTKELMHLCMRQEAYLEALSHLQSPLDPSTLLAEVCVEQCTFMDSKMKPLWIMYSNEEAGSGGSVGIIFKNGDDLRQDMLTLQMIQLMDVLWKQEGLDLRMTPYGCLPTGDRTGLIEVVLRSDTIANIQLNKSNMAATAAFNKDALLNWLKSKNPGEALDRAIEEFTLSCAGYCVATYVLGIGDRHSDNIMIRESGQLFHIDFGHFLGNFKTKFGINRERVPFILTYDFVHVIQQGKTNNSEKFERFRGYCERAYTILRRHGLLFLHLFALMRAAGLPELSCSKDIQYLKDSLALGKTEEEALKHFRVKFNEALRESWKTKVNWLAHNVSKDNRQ
Description: Inhibition of human PI3Kdelta (108 to 1044 residues) expressed in mammalian expression system by KINOMEscan assay

In assay [9] the target is Phosphatidylinositol 4,5-bisphosphate 3-kinase catalytic subunit beta isoform (Homo sapiens, UniProt P42338).
Sequence of Phosphatidylinositol 4,5-bisphosphate 3-kinase catalytic subunit beta isoform (P42338 whole entry, canonical isoform): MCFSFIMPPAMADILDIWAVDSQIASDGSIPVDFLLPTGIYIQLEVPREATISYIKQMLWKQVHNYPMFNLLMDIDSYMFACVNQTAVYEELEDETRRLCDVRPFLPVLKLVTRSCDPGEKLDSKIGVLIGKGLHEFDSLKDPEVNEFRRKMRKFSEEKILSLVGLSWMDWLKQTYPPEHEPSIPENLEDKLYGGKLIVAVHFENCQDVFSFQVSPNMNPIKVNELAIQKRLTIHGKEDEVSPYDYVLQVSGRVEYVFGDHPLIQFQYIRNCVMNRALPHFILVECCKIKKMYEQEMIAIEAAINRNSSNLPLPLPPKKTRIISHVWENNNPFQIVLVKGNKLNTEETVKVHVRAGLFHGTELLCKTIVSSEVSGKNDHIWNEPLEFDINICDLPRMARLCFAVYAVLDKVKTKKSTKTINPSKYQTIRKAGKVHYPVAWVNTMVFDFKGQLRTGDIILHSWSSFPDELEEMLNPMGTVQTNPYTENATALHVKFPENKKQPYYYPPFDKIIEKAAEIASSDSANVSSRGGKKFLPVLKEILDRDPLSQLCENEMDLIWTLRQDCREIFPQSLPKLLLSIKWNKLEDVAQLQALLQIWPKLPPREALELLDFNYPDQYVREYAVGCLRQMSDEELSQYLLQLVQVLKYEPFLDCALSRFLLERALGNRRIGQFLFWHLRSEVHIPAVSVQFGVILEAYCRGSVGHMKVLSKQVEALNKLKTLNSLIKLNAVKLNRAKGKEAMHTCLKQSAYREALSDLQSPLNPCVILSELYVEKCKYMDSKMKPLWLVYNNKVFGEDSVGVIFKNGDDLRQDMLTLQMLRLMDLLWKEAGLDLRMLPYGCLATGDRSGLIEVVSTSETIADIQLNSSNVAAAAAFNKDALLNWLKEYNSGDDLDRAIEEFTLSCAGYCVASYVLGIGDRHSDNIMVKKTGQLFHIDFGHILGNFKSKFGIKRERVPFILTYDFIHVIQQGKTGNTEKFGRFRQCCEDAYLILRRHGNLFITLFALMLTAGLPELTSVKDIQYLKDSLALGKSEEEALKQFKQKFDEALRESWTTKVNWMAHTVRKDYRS
Description: Inhibition of human PI3Kbeta (118 to 1070 residues) expressed in mammalian expression system by KINOMEscan assay
In assay [10] the target is Phosphatidylinositol 4,5-bisphosphate 3-kinase catalytic subunit gamma isoform (Homo sapiens, UniProt P48736).
Sequence of Phosphatidylinositol 4,5-bisphosphate 3-kinase catalytic subunit gamma isoform (P48736 whole entry, canonical isoform): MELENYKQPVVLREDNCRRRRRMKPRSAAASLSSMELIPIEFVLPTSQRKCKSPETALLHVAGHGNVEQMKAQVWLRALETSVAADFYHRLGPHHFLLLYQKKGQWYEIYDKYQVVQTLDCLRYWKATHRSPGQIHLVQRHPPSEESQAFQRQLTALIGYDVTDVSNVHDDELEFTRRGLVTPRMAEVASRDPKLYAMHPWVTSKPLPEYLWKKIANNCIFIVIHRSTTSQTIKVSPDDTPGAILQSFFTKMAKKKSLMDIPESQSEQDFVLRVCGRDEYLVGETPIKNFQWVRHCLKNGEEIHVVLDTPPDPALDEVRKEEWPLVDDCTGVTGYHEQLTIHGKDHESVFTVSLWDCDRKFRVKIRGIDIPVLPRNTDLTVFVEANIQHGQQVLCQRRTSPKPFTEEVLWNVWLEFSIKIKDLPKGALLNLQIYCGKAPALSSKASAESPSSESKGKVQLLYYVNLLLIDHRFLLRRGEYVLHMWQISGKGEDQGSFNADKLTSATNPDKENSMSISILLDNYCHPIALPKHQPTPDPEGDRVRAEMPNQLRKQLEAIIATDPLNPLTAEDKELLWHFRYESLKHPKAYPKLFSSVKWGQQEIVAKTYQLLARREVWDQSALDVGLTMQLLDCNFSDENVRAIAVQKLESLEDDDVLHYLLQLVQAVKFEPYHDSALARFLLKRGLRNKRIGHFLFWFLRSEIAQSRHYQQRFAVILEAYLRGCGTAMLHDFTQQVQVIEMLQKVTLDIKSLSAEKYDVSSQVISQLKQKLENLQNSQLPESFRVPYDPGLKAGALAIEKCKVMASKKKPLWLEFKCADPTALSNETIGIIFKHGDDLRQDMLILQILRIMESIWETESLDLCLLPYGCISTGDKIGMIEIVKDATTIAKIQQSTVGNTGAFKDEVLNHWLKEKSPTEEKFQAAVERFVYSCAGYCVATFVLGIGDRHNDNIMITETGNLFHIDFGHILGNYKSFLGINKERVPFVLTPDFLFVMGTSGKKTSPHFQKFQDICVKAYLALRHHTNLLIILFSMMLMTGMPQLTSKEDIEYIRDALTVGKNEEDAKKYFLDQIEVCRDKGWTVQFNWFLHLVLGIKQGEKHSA
Description: Inhibition of human PI3Kgamma (144 to 1102 residues) expressed in mammalian expression system by KINOMEscan assay

As a reminder, the Kd is the concentration at which binding is half-saturated. A low value points to tighter binding. As usually defined, the Ki is the dissociation constant of the complex between target and ligand, obtained from inhibition or displacement. Low values mean tighter binding, high ones weaker binding. The term IC50 denotes the concentration needed to halve the response being measured.

T1 sequence (P42336 whole entry, canonical isoform): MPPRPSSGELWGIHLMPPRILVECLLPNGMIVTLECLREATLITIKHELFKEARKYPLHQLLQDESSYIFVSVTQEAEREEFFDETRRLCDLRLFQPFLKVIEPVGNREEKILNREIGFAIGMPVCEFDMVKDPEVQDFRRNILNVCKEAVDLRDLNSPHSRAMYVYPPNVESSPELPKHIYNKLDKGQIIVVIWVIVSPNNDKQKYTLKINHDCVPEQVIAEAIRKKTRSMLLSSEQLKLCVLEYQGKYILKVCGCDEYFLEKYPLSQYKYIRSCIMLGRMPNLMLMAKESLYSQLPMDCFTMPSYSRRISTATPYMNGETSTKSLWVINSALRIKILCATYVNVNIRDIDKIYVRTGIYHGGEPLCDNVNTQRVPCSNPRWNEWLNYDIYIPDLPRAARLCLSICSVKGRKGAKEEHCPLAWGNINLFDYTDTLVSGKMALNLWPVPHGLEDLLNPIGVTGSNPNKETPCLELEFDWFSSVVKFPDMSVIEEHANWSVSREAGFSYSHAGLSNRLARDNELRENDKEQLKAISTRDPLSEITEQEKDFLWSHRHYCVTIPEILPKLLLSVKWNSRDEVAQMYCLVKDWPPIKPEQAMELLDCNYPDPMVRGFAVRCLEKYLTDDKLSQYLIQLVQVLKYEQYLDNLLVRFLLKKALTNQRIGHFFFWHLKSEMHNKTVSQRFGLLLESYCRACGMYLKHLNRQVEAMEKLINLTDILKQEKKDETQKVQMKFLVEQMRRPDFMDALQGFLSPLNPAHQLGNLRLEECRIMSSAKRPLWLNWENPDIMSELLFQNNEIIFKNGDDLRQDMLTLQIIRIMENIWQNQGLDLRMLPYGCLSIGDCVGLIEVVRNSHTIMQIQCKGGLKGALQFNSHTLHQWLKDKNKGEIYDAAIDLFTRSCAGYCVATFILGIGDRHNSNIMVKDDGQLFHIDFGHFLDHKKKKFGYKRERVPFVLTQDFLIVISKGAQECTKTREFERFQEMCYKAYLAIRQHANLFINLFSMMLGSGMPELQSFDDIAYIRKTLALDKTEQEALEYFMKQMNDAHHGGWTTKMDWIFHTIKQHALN
Sequence of Phosphatidylinositol 3-kinase catalytic subunit type 3 (Q8NEB9 whole entry, the tested form may be a part, canonical isoform): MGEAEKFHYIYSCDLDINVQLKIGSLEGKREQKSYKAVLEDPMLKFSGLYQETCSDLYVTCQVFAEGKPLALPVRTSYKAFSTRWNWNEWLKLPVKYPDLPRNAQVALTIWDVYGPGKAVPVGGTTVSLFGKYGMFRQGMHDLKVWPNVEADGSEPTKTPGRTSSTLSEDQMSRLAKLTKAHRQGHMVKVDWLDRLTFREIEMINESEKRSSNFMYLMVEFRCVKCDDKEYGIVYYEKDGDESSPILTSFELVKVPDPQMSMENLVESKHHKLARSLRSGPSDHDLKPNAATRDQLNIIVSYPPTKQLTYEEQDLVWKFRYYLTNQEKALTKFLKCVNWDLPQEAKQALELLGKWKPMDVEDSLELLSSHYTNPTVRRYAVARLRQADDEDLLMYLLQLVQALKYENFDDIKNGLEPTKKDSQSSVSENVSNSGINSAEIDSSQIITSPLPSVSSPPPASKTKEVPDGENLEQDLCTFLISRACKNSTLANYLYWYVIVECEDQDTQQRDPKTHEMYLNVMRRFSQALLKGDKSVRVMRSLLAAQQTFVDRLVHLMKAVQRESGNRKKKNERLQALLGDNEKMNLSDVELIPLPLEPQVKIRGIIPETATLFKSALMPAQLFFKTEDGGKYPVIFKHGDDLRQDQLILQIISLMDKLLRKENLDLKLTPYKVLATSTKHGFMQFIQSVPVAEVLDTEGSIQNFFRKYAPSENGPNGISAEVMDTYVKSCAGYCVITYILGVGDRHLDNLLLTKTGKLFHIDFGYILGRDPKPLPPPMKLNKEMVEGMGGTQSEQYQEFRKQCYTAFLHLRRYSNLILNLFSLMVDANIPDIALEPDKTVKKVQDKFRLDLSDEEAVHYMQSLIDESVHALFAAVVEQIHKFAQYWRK

`CC(C)n1nc(-c2ccc3oc(N)nc3c2)c2c(N)ncnc21` [SAPANISERTIB]: in assay [1], binding was characterised by a dissociation constant (Kd) of 8.2 µM.
Consider `CC[C@@H]1COCCN1c1nc(-c2cnc(N)cc2C(F)F)nc(N2CCOC[C@H]2CC)n1`, for which the Ki in assay [2] amounted to 0.0322 µM; in [4], 0.0136 µM. For the same molecule, the IC50 came to 0.354 µM in [3] and 0.209 µM in assay [5].
For `Nc1cc(C(F)F)c(-c2nc(N3CCOCC34CCC4)nc(N3CCOCC34CCC4)n2)cn1` the same measures were 0.632 µM, 0.0328 µM, 0.942 µM and 0.526 µM.
On the same counts, the results for `Nc1cc(CO)c(-c2nc(N3CCOCC3)nc(N3CCOCC3)n2)cn1` are 0.0813 µM, 0.0745 µM, 0.341 µM and 0.528 µM.
For `Nc1cc(C(F)F)c(-c2nc(N3CCOCC3)cc(N3CCOCC3)n2)cn1` the same measures were 0.029 µM, 0.042 µM, 0.243 µM and 0.256 µM.
Turning to `Nc1cc(C(F)F)c(-c2nc(N3C4CCCC3COC4)nc(N3C4CCCC3COC4)n2)cn1`, the figures for the inhibition constant Ki in assay [2] and in assay [4] were more than 20 µM and 0.0602 µM, respectively. Also, the IC50 in [3] is 1.21 µM; in assay [5], 1.3 µM.
For `Nc1cc(CF)c(-c2nc(N3CCOCC3)nc(N3CCOCC3)n2)cn1` the same measures were 0.0686 µM, 0.0543 µM, 0.397 µM and 0.218 µM.
On the same counts, the results for `C[C@@H]1COC[C@H](C)N1c1nc(-c2cnc(N)cc2C(F)F)nc(N2[C@H](C)COC[C@@H]2C)n1` are 0.141 µM, 0.0035 µM, 0.252 µM and 0.16 µM.
Consider `C[C@@H]1COCCN1c1nc(-c2cnc(N)cc2C(F)F)nc(N2CCOC[C@H]2C)n1`, for which the Ki was determined as 0.633 µM in [2] and 0.0126 µM in assay [4]. The concentration for half-maximal inhibition (IC50) in [3] came out at 0.364 µM; in assay [5], 0.31 µM.
For `Nc1cc(C(F)F)c(-c2cc(N3C4CCC3COC4)nc(N3C4CCC3COC4)n2)cn1` the same measures were 2.09 µM, 0.012 µM, 0.287 µM and 0.164 µM.
Take `CO[C@H]1CC[C@H](N2C(=O)CNc3ncc(-c4ccc(C(C)(C)O)nc4)nc32)CC1` [ONATASERTIB]: the Kd in assay [1] amounted to 2.5 µM; in assay [6], 0.039 µM.
In the case of `C[C@@H]1COCCN1c1nc(-c2cnc(N)cc2C(F)F)nc(N2CCOCC2)n1`, the Ki amounted to 0.0208 µM in assay [2] and 0.0096 µM in assay [4]. Also, the results for the IC50 in assay [3] and in assay [5] were 0.147 µM and 0.138 µM, respectively.
As for `Nc1cc(C(F)F)c(-c2nc(N3C[C@@H]4C[C@H]3CO4)nc(N3C[C@@H]4C[C@H]3CO4)n2)cn1`, the Ki in assay [2] is more than 20 µM; in assay [4], 0.0185 µM. In addition, the IC50 in assay [3] stood at 4.04 µM; in assay [5], 1.56 µM.
On to `Nc1cc(C(F)F)c(-c2nc(N3CCOCC3)nc(N3CCOCC3)n2)cn1`, for which the figures for the IC50 in assay [3] and in [5] were 0.102 µM and 0.118 µM, respectively.
On to `Nc1cc(C(F)(F)F)c(-c2cc(N3CCOCC3)nc(N3CCOCC3)n2)cn1` [BUPARLISIB], for which the results for the IC50 in assay [3] and in assay [5] were 0.416 µM and 0.553 µM, respectively.
As for `Nc1cc(C(F)F)c(-c2nc(N3CCOCC3)nc(N3CC4CCC(C3)O4)n2)cn1`, the results for the Ki in assay [2] and in assay [4] were 0.0237 µM and 0.0034 µM, respectively. Also, the IC50 in [3] turned out to be 0.144 µM; in [5] it was 0.112 µM.
On the same counts, the results for `Nc1cc(C(F)F)c(-c2nc(N3C[C@H]4C[C@@H]3CO4)nc(N3C[C@H]4C[C@@H]3CO4)n2)cn1` are 4.63 µM, 0.308 µM, 17.7 µM and 12.6 µM.
For `Nc1cc(C(F)(F)F)c(-c2nc(N3C4CCC3COC4)cc(N3C4CCC3COC4)n2)cn1` the same measures were 5.67 µM, 0.435 µM, 3.32 µM and 1.94 µM.
On the same counts, the results for `C[C@H]1COC[C@H](C)N1c1nc(-c2cnc(N)cc2C(F)F)nc(N2[C@@H](C)COC[C@@H]2C)n1` are 0.064 µM, 0.0211 µM, 0.379 µM and 0.294 µM.
Take `Nc1cc(C(F)F)c(-c2cc(N3CCOCC3)nc(N3CCOCC3)n2)cn1`: the Ki in [2] is 0.018 µM; in assay [4] it was 0.035 µM. Further, the IC50 in [3] came out at 0.207 µM; in assay [5] it was 0.184 µM.
On the same counts, the results for `Nc1cc(C(F)(F)F)c(-c2cc(N3C4CCC3COC4)nc(N3C4CCC3COC4)n2)cn1` are 2.19 µM, 0.03 µM, 0.52 µM and 0.318 µM.
`Nc1cc(C(F)F)c(-c2nc(N3CCOCC3)nc(N3C4CCC3COC4)n2)cn1`: the values for the Ki in [2] and in [4] were 0.0258 µM and 0.0112 µM, respectively. In addition, the IC50 in assay [3] came to 0.156 µM; in assay [5], 0.113 µM.
As for `Nc1cc(C(F)F)c(-c2nc(N3C4COCC3COC4)nc(N3C4COCC3COC4)n2)cn1`, the figures for the Ki in [2] and in [4] were 2.38 µM and 0.031 µM, respectively. Also, the IC50 in [3] turned out to be 0.357 µM; in [5], 0.275 µM.
On the same counts, the results for `CC1(C)CN(c2nc(-c3cnc(N)cc3C(F)F)nc(N3CCOC(C)(C)C3)n2)CCO1` are 8.79 µM, 0.0734 µM, 4.82 µM and 2.33 µM.
For `Nc1cc(C(F)F)c(-c2nc(N3C4COCC3C4)nc(N3C4COCC3C4)n2)cn1` the same measures were more than 20 µM, 0.551 µM, 17.9 µM and 5.77 µM.
Consider `COc1cc(N)ncc1-c1nc(N2CCOCC2)nc(N2CCOCC2)n1`, for which the Ki in assay [2] was 0.693 µM; in assay [4], 0.483 µM. For the same molecule, the IC50 in [3] was 1.85 µM; in assay [5], 1.92 µM.
For the molecule `CNC(=O)c1cccc(-c2ccc3c(N4CCOC[C@@H]4C)nc(N4CCOC[C@@H]4C)nc3n2)c1` [VISTUSERTIB], the dissociation constant Kd in assay [1] is 23 µM; in [7], 0.033 µM; in [6], more than 30 µM; in [8], 1.5 µM; in assay [9], 3.3 µM; in [10], 8.4 µM.
In the case of `C[C@@H]1CN(c2nc(-c3cnc(N)cc3C(F)F)nc(N3C[C@@H](C)O[C@@H](C)C3)n2)C[C@H](C)O1`, the Ki amounted to 15.4 µM in [2] and 0.65 µM in [4]. In addition, the values for the IC50 in [3] and in assay [5] were 20.9 µM and 10.4 µM, respectively.
On the same counts, the results for `COC(OC)c1cc(N)ncc1-c1nc(N2CCOCC2)nc(N2CCOCC2)n1` are 0.129 µM, 0.474 µM, 1.2 µM and 2.11 µM.
Turning to `C[C@@H]1COC[C@@H](C)N1c1nc(-c2cnc(N)cc2C(F)F)nc(N2[C@H](C)COC[C@H]2C)n1`, the Ki was more than 20 µM in assay [2] and 0.0799 µM in assay [4]. For the same molecule, the values for the IC50 in assay [3] and in assay [5] were 3.57 µM and 1.19 µM, respectively.
Turning to `Nc1cc(C(F)F)c(-c2nc(N3CC4CCC(C3)O4)nc(N3CC4CCC(C3)O4)n2)cn1`, the Ki is 1.3 µM in [2] and 0.0139 µM in assay [4]. Besides, the results for the IC50 in assay [3] and in assay [5] were 0.63 µM and 0.301 µM, respectively.
Take `Nc1cc(C(F)(F)F)c(-c2nc(N3CCOCC3)cc(N3CCOCC3)n2)cn1`: the figures for the Ki in assay [2] and in assay [4] were 0.041 µM and 0.911 µM, respectively. Further, the IC50 amounted to 0.729 µM in assay [3] and 0.926 µM in [5].
On the same counts, the results for `Nc1cc(C(F)F)c(-c2nc(N3C4CCC3COC4)cc(N3C4CCC3COC4)n2)cn1` are 2.23 µM, 0.06 µM, 0.65 µM and 0.395 µM.

These data come from ChEMBL document CHEMBL4270669 (J Med Chem, 2018).
